SMILES strings stand for the structures. Where only a bound is given, the exact number is not on record here.

The assay addresses Cyclin-dependent kinase 2 (Homo sapiens, UniProt P24941). Description: Inhibition of CDK2/Cyclin A.

`CCCC(=O)Nc1cc(C)[nH]n1`: for the setting “read-out: IC50”, the IC50 was above 10000 nM. Take `O=C(Nc1cc(C2CC2)[nH]n1)c1ccccc1Cl`: the IC50 (read-out: IC50) amounted to 10000 nM. `O=C(Cc1ccc(Cc2cccs2)cc1)Nc1cc(C2CC2)n[nH]1`: the IC50 is 3 nM (read-out: IC50) and 3 nM (read-out: pIC50 (converted)). On to `Cc1cc(CC(=O)Nc2cc(C3CC3)[nH]n2)ccc1-c1ccccc1`, for which the IC50 is 9 nM (read-out: IC50) and 8.99 nM (read-out: pIC50 (converted)). On to `CC(C)(C)c1cc(NC(=O)c2ccc(Br)cc2)n[nH]1`, for which, where the note is “read-out: IC50”, the IC50 was above 10000 nM.

As to `O=C(Nc1cc(Cc2ccccc2)[nH]n1)c1ccc(Br)cc1`, the IC50 (read-out: IC50) is above 10000 nM. On the same count and under the same terms, the same measure for `O=C(Nc1cc(C2CCCCC2)[nH]n1)c1ccc(Br)cc1`: 10000 nM.

As for `COc1ccccc1C(=O)Nc1cc(C2CC2)[nH]n1`, the IC50 (read-out: IC50) is above 10000 nM. As to `O=C(Nc1cc(C2CC2)[nH]n1)c1c(Cl)cccc1Cl`, the IC50 (read-out: IC50) is above 10000 nM. The same measure, in the same setting: the same measure for `CO[C@@H](C(=O)Nc1cc(C2CC2)n[nH]1)c1ccccc1`: above 10000 nM. For `O=C(Cc1ccc(-c2ccccc2)c(F)c1)Nc1cc(C2CC2)n[nH]1`, the IC50 was 4 nM (read-out: IC50) and 4 nM (read-out: pIC50 (converted)). As to `O=C(Nc1cc(-c2ccccc2)[nH]n1)c1ccc(Br)cc1`, the IC50 (read-out: IC50) is above 10000 nM.

The values above are taken from ChEMBL document CHEMBL1140962, “An efficient tool for identifying inhibitors based on 3D-QSAR and docking using feature-shape pharmacophore of biologically active conformation--a case study with CDK2/cyclinA” (Eur J Med Chem, 2008).
